{"source": "patent US6610304B1", "about": "“Liposomes containing multiple branch peptide constructions for use against human immunodeficiency virus” (priority 1997, dated 2003)", "key": {"[1]": {"test_system": "HIV-1 Hx10clone", "assay": "Infection assay: inhibition of cell infection (cell-free p24 by ELISA)", "type": "cell-based", "details": "C8166 cells, supernatant ELISA, no unit or concentration given", "experimental": "C8166 cells were washed once in RPMI medium and then infected with HIV-1 Hx10clone by incubation at 37° C. for 2 hours in the presence of test substances (SPC3, SPC RL, empty liposomes of 110 nm and 250 nm average size, and dialysed and non-dialysed liposomes of those sizes containing SPC3) and in the absence of any test substance (control). After incubation, the virus was removed and the cells were incubated with fresh medium at 37° C. in the presence of the test substances or in the absence of any test substance (control). Infections and cell cultures were in 96-well culture plates. The production of HIV was monitored by measuring the concentration of cell-free p24 in the supernatant by ELISA, as described by Gluschankof et al., 1997, using the AMPAK amplification kit (DAKO. Trappes, France). The results are shown in Table 2 below, and the day 4 results are also shown graphically in the accompanying drawing."}, "[2]": {"test_system": "HIV-1 Hx10 clone", "assay": "Fusion assay: inhibition of syncytium formation", "type": "cell-based", "details": "concentration 10^−6 M, C8166 cells", "experimental": "C8166 cells were incubated at 37° C. with HIV-1 Hx10 clone (B. Hahn, University of Alabama, USA) in the presence of test substances (SPC3, SPC RL, empty liposomes of 110 nm and 250 nm average size, and dialysed and non-dialysed liposomes of those sizes containing SPC3) and in the absence of any test substance (control). The samples were inspected by phase contrast microscopy and syncytia were scored after 48 and 72 hours of incubation in 96-well flat-bottomed cultured plates. Experiments were performed three times in duplicate and identical results were obtained. The presence of syncytia is indicated by + signs. allocated as follows: […]"}, "[3]": {"assay": "Toxicity, intravenous injection into mice", "type": "in vivo", "details": "50 mg/kg of SPC3, immediately, after 12 or 24 hours", "experimental": "To determine toxicity, the 250 nm dialysed liposomes containing SPC3 were injected intravenously into 8 mice at a dose of 50 mg/kg of SPC3."}}}
{"compound": "(RQGYSPL)8-(K)4-(K)2-K-βA-OH [SPC RL]", "values": [{"measurement": "p24 production", "setting": "[1]; Day 3 post-infection", "value": 0.441}, {"measurement": "p24 production", "setting": "[1]; Day 4 post-infection", "value": 0.463}, {"measurement": "Syncitia Formation", "setting": "[2]; Day 2 post-infection", "value": "+/− (+/−=>95 % decrease)"}, {"measurement": "Syncitia Formation", "setting": "[2]; Day 3 post-infection", "value": "+/− (+/−=>95 % decrease)"}]}
{"compound": "C[C@H](NC(=O)[C@H](CCCNC(=N)N)NC(=O)CNC(=O)[C@@H]1CCCN1C(=O)CN)C(=O)N[C@@H](Cc1ccccc1)C(=O)NCCCC[C@H](NC(=O)[C@H](Cc1ccccc1)NC(=O)[C@H](C)NC(=O)[C@H](CCCNC(=N)N)NC(=O)CNC(=O)[C@@H]1CCCN1C(=O)CN)C(=O)NCCCC[C@H](NC(=O)[C@H](CCCCNC(=O)[C@H](Cc1ccccc1)NC(=O)[C@H](C)NC(=O)[C@H](CCCNC(=N)N)NC(=O)CNC(=O)[C@@H]1CCCN1C(=O)CN)NC(=O)[C@H](Cc1ccccc1)NC(=O)[C@H](C)NC(=O)[C@H](CCCNC(=N)N)NC(=O)CNC(=O)[C@@H]1CCCN1C(=O)CN)C(=O)NCCCC[C@H](NC(=O)[C@H](CCCCNC(=O)[C@H](CCCCNC(=O)[C@H](Cc1ccccc1)NC(=O)[C@H](C)NC(=O)[C@H](CCCNC(=N)N)NC(=O)CNC(=O)[C@@H]1CCCN1C(=O)CN)NC(=O)[C@H](Cc1ccccc1)NC(=O)[C@H](C)NC(=O)[C@H](CCCNC(=N)N)NC(=O)CNC(=O)[C@@H]1CCCN1C(=O)CN)NC(=O)[C@H](CCCCNC(=O)[C@H](Cc1ccccc1)NC(=O)[C@H](C)NC(=O)[C@H](CCCNC(=N)N)NC(=O)CNC(=O)[C@@H]1CCCN1C(=O)CN)NC(=O)[C@H](Cc1ccccc1)NC(=O)[C@H](C)NC(=O)[C@H](CCCNC(=N)N)NC(=O)CNC(=O)[C@@H]1CCCN1C(=O)CN)C(=O)NCCC(=O)O", "note": "[SPC3, (GPGRAF)8-(K)4-(K)2-K-βA-OH]", "values": [{"measurement": "symptoms of toxicity", "setting": "[3]", "value": "symptoms of toxicity were observed"}]}
